# Data as given in ChEMBL document CHEMBL1201862, “PubChem BioAssay data set” (2004).
# Activity calls are given as the source filed them.
# Assays:
# [1] = target: T1, G-protein coupled receptor 35 (Homo sapiens, UniProt Q9HC97); test: SAR analysis of Agonists of the GPR35 Receptor using an Image-Based Assay - Set 4. [Related pubchem assays (depositor defined):AID2013, AID2026]; format: functional
# [2] = target: T2, Cannabinoid receptor 1 (Homo sapiens, UniProt P21554); test: SAR analysis of agonists of the Cannabinoid Receptor 1 using an Image-Based Assay - Set 4. [Related pubchem assays (depositor defined):AID2013, AID2026]; format: functional
# [3] = target: T1, G-protein coupled receptor 35; test: SAR analysis of Antagonists of the GPR35 Receptor using an Image-Based Assay - Set 6. [Related pubchem assays (depositor defined):AID2013, AID2026]; format: functional
# [4] = target: T2, Cannabinoid receptor 1; test: SAR analysis of antagonists of the Cannabinoid Receptor 1 using an Image-Based Assay - Set 4. [Related pubchem assays (depositor defined):AID2013, AID2026]; format: functional
# [5] = target: G-protein coupled receptor 55 (Homo sapiens, UniProt Q9Y2T6); test: SAR Analysis of Selective Antagonists of GPR55 using an Image-Based Assay - Set 4. [Related pubchem assays (depositor defined):AID2013, AID2026]; format: functional;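 note: antagonism of response to 5 µM lysophosphatidylinositol agonist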
# [6] = target: T3, Cannabinoid receptor 2 (Homo sapiens, UniProt P34972); test: SAR analysis of antagonists of the Cannabinoid Receptor 2 using an Image-Based Assay - Set 3. [Related pubchem assays (depositor defined):AID2013, AID2026]; format: functional
# [7] = target: T3, Cannabinoid receptor 2; test: SAR analysis of agonists of the Cannabinoid Receptor 2 using an Image-Based Assay - Set 3. [Related pubchem assays (depositor defined):AID2013, AID2026]; format: functional
# [8] = target: T4, Kappa-type opioid receptor (Homo sapiens, UniProt P41145); test: SAR analysis of small molecule antagonists of the kappa opioid receptor via a luminescent beta-arrestin assay - Set 4. [Related pubchem assays (depositor defined):AID1777, AID1778, AID1785, AID1786, AID1966, AID2133, AID2136, AID2285]; format: functional
# [9] = target: T4, Kappa-type opioid receptor; test: SAR analysis of small molecule antagonists of the kappa opioid receptor via a luminescent beta-arrestin assay - Set 5. [Related pubchem assays (depositor defined):AID1778, AID1785]; format: functional
# [10] = target: T5, Aminopeptidase N (Plasmodium falciparum FcB1/Columbia, UniProt O96935); test: P. falciparum M1AAP inhibitors, biochemical, fluorogenic H-Leu-NHMec substrate, 1536-well (AID 1445); set-up: species or system Plasmodium falciparum 3D7, 3D7
# T5 sequence (O96935 whole entry): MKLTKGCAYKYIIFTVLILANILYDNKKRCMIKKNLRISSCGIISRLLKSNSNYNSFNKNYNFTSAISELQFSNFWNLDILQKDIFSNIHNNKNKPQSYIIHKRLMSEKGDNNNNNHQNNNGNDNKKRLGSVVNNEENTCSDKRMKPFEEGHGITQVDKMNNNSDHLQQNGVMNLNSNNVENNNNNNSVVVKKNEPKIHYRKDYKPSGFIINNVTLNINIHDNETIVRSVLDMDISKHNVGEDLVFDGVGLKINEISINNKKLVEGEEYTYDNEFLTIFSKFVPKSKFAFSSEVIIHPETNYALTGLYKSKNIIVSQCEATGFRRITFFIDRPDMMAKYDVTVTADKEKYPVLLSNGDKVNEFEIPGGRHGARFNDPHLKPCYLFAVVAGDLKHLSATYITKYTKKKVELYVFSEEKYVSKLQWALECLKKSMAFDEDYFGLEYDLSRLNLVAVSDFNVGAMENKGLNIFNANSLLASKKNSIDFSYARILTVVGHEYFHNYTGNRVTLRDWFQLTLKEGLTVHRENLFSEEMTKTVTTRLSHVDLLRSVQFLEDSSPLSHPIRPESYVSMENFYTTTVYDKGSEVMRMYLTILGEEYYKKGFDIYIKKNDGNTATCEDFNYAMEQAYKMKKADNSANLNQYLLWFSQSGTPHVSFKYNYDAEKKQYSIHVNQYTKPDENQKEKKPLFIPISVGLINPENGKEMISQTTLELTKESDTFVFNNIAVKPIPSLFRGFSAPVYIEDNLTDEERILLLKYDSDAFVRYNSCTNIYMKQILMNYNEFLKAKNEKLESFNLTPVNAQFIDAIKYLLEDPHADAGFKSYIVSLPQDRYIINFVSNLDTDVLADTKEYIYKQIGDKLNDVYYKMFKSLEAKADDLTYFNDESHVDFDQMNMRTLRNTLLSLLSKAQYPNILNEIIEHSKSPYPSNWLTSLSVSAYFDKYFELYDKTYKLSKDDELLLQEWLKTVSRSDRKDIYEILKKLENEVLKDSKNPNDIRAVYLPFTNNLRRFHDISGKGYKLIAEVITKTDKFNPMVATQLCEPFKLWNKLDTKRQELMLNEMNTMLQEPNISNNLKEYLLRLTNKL
# [11] = Counterscreen for IDE inhibitors: Luminescence-based cell-based high throughput dose response assay to identify compounds that are cytotoxic to HEK cells. [Related pubchem assays: 434962 (Primary screen (IDE inhibitors in singlicate)), 449730 (Counterscreen (Cytotoxicity in triplicate)), 435028 (Confirmation (IDE inhibitors in triplicate)) …; format: functional; settings: HEK293
# [12] = target: Ion channel NompC (Danio rerio, UniProt Q7T1G6); test: Dose response cell-based high-throughput screening assay for agonists of the transient receptor potential channel N1 (TRPN1). [Related pubchem assays (depositor defined):AID1424, AID1448]; format: functional
# [13] = target: Mucolipin-3 (Homo sapiens, UniProt Q8TDD5); test: Fluorescence counterscreen assay for […] agonists: dose response cell-based high-throughput screening assay to identify agonists of the transient receptor potential channel ML3 (TRPML3). [Related pubchem assays: 1424, 1448 ]; format: functional
# [14] = target: T6, Insulin-degrading enzyme (Homo sapiens, UniProt P14735); test: Dose Response: Fluorescence polarization-based cell-based high throughput dose response assay for inhibitors of insulin-degrading enzyme (IDE). [Related pubchem assays: 434962 (Primary screen (IDE inhibitors in singlicate)), 449730 (Counterscreen (Cytotoxicity in triplicate)), 435028 (Confirmation (IDE inhibitors in triplicate)), 434984 (Summary …; format: functional
# T6 sequence (P14735 whole entry): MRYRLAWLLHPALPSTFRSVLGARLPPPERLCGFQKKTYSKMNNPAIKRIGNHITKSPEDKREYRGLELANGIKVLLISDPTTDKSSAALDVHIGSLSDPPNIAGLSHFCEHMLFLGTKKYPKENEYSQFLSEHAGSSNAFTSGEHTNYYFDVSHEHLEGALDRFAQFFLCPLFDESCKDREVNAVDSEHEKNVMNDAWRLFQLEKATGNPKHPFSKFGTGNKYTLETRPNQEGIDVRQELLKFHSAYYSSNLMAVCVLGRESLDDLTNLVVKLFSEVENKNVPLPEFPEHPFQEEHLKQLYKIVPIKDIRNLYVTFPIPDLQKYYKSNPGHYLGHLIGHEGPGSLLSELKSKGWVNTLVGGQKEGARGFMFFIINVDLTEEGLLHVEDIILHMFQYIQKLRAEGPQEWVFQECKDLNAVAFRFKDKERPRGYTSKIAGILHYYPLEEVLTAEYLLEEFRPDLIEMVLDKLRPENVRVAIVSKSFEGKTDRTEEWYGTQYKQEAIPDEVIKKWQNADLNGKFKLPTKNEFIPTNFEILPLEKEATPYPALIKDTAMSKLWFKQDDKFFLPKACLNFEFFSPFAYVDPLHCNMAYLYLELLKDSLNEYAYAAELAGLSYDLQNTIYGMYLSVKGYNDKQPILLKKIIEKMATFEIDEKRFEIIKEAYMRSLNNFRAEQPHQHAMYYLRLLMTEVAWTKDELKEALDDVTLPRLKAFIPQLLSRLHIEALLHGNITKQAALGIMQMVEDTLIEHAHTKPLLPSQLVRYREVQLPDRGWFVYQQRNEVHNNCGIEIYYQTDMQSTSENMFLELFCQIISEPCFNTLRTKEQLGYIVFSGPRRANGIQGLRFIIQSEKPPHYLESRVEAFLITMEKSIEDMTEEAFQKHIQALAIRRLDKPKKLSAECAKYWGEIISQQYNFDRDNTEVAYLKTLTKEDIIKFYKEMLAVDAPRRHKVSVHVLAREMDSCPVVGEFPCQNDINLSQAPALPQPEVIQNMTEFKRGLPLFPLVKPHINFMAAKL
# [15] = target: Dual specificity tyrosine-phosphorylation-regulated kinase 1A (Rattus norvegicus, UniProt Q63470); format: biochemical, Homo sapiens
# [16] = target: Intestinal-type alkaline phosphatase (Homo sapiens, UniProt P09923); test: human intestinal alkaline phosphatase activators, dose response, biochemical, luminescence, uHTS hits (AID 463120); format: functional
# Chain of Intestinal-type alkaline phosphatase (P09923 whole entry): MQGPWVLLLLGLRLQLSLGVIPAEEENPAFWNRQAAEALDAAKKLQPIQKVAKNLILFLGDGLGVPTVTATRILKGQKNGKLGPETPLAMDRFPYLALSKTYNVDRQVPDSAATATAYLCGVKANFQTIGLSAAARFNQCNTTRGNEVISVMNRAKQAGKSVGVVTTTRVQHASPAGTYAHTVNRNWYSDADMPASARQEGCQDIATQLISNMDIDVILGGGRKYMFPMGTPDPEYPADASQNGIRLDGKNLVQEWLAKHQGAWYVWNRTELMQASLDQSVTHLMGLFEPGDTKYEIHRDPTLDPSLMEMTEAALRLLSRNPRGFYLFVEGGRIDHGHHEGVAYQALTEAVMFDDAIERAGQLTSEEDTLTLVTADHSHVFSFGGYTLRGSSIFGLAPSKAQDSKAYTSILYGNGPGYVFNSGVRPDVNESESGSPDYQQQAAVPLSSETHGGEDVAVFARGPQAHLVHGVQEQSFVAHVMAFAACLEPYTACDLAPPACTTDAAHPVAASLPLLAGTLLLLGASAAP
# T3 sequence (P34972 whole entry): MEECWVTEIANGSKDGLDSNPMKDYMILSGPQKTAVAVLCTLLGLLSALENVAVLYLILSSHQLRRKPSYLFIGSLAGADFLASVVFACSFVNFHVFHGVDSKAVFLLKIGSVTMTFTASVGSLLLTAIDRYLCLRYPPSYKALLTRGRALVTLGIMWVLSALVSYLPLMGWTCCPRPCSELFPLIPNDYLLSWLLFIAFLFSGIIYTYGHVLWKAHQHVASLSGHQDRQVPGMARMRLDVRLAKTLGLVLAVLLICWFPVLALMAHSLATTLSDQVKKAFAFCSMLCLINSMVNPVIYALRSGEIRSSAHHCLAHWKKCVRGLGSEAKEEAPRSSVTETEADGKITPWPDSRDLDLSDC
# T2 sequence (P21554 whole entry): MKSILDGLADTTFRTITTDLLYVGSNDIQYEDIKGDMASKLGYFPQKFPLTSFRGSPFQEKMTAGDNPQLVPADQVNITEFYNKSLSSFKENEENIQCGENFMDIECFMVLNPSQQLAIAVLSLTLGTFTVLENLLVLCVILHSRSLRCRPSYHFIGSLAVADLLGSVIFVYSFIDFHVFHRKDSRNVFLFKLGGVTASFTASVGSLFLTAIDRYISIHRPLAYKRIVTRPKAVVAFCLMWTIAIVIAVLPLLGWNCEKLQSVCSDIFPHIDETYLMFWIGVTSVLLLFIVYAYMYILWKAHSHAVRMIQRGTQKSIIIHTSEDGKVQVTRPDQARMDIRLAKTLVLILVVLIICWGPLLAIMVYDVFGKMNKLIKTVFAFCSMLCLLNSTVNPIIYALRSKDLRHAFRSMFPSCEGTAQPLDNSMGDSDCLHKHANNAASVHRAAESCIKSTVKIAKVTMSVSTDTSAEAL
# T1 sequence (Q9HC97 whole entry): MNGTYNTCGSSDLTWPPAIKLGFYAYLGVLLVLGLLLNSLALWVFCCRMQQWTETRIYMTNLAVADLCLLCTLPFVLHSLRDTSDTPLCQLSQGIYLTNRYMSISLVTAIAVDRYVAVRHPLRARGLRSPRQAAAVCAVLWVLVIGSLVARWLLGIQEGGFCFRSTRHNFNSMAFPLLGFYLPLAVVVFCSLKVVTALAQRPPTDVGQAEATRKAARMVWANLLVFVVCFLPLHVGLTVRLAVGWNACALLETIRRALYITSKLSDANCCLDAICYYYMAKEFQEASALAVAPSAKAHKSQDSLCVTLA
# T4 sequence (P41145 whole entry): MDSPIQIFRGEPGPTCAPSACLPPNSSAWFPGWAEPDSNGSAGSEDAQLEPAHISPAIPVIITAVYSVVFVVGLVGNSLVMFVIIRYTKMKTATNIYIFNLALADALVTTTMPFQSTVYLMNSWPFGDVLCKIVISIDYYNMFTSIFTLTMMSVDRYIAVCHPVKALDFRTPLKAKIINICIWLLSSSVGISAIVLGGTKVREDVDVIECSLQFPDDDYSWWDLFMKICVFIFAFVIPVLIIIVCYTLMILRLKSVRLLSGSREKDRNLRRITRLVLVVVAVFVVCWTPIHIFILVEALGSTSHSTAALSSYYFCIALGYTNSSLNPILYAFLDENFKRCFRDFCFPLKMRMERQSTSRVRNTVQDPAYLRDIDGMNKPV
# Chain of G-protein coupled receptor 55 (Q9Y2T6 whole entry): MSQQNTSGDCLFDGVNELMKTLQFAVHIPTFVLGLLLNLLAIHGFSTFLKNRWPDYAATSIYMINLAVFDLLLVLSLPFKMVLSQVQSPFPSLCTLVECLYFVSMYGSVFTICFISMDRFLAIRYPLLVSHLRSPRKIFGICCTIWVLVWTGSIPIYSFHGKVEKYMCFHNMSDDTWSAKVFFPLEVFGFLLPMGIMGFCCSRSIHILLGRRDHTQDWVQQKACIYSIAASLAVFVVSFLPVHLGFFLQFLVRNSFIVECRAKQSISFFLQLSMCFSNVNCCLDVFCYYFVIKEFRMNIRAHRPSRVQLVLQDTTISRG
# Chain of Mucolipin-3 (Q8TDD5 whole entry): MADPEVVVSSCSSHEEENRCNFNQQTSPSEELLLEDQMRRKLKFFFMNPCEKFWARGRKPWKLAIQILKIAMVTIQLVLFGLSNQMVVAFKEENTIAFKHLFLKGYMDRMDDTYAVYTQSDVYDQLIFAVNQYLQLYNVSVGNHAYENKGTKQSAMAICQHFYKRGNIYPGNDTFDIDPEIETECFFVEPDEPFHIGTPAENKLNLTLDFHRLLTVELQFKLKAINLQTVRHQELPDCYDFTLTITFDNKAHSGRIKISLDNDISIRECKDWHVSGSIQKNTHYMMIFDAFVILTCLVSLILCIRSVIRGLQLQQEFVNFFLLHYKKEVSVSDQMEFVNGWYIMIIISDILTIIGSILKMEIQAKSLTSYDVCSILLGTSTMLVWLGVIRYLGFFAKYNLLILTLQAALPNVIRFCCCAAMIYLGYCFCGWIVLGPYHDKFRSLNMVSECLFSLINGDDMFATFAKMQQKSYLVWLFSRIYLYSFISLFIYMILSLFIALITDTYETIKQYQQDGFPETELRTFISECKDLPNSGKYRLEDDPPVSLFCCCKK
# Chain of Ion channel NompC (Q7T1G6 whole entry): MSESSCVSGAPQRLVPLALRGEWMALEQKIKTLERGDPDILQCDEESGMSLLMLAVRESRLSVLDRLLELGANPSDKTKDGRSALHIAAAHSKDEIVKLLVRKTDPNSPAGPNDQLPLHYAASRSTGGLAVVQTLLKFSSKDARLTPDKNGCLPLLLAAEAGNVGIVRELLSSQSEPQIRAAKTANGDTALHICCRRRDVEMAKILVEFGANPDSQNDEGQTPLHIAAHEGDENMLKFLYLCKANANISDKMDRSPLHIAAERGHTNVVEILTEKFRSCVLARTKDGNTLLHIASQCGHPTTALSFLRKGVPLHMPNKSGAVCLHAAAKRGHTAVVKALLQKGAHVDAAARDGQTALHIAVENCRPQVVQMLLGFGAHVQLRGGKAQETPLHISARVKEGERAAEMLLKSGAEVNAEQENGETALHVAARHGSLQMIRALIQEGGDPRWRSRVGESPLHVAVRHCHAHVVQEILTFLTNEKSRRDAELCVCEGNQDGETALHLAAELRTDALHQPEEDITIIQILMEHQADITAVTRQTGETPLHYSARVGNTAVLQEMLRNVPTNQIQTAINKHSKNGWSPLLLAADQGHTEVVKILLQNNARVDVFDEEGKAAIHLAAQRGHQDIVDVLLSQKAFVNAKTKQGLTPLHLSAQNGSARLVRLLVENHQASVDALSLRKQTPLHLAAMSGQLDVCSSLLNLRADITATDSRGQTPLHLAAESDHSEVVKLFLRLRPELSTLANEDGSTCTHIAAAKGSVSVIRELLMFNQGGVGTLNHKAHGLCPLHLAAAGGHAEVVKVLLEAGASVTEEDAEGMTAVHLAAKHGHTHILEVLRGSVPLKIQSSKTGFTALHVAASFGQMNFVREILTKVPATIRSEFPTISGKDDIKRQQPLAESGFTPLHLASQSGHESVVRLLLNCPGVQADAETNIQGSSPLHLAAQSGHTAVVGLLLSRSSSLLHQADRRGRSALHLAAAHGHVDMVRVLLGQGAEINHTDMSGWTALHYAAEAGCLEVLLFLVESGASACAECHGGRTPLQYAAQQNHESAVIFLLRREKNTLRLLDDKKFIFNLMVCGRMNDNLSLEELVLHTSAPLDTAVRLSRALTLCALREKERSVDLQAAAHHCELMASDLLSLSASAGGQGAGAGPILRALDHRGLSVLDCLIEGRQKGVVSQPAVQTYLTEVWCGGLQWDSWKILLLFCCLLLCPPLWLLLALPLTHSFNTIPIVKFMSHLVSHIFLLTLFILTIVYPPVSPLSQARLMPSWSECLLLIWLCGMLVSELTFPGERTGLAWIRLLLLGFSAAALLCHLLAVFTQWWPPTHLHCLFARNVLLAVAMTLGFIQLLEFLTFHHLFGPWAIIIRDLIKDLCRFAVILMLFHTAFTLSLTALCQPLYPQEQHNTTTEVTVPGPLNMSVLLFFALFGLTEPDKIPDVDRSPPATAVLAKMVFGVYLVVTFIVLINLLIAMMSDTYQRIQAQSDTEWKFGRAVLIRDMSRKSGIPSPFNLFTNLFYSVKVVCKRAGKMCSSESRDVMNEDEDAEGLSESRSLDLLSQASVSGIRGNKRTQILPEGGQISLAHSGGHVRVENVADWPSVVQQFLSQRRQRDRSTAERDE
SMILES,EC50 [1],EC50 [2],IC50 [3],IC50 [4],IC50 [5],IC50 [6],EC50 [7],further results
Cc1nc(N2CCN(C(=O)c3ccc4c(c3)nc(C)n4C)CC2)c2c3c(sc2n1)CC(C)CC3 (stereo not drawn),> 32 µM (inactive),> 32 µM (inactive),> 32 µM (inactive),19.6 µM (inactive),> 32 µM (inactive),> 32 µM (inactive),26.8 µM (inactive),–
O=C(Cn1c(=O)c2cccn2c2cc(Br)cnc21)NCCCN1CCN(c2ccccc2)CC1,–,–,–,–,–,–,–,IC50 [8]: > 20 µM (inactive); IC50 [9]: > 20 µM (inactive)
COc1ccc(C2(C(=O)N3CCC(n4nc(-c5ccccc5)oc4=O)CC3)CC2)cc1,> 32 µM (inactive),> 32 µM (inactive),> 32 µM (inactive),7.11 µM (active),9.55 µM (active),> 32 µM (inactive),> 32 µM (inactive),–
O=C(O)c1cccc(-c2ccc(/C=N/Nc3ccc([N+](=O)[O-])cc3)o2)c1,–,–,–,–,–,–,–,IC50 [10]: 27.3 µM (active); IC50 [11]: > 55.6 µM (not active); EC50 [12]: 12 µM (inactive); EC50 [13]: > 29.9 µM (not active); IC50 [14]: > 55.9 µM (not active); AC50 [15]: 6.38 µM (active)
O=C(N/N=C/c1cccc([N+](=O)[O-])c1)c1nc(O)c2ccccc2n1,–,–,–,–,–,–,–,EC50 [16]: 8.34 µM (active)
